Like-named read-outs stand apart in the source and are kept apart here.
Target: T1, Human AhR (Homo sapiens, UniProt P35869)
T1 construct: expressed in transfected cells
T1 sequence (P35869 11-848): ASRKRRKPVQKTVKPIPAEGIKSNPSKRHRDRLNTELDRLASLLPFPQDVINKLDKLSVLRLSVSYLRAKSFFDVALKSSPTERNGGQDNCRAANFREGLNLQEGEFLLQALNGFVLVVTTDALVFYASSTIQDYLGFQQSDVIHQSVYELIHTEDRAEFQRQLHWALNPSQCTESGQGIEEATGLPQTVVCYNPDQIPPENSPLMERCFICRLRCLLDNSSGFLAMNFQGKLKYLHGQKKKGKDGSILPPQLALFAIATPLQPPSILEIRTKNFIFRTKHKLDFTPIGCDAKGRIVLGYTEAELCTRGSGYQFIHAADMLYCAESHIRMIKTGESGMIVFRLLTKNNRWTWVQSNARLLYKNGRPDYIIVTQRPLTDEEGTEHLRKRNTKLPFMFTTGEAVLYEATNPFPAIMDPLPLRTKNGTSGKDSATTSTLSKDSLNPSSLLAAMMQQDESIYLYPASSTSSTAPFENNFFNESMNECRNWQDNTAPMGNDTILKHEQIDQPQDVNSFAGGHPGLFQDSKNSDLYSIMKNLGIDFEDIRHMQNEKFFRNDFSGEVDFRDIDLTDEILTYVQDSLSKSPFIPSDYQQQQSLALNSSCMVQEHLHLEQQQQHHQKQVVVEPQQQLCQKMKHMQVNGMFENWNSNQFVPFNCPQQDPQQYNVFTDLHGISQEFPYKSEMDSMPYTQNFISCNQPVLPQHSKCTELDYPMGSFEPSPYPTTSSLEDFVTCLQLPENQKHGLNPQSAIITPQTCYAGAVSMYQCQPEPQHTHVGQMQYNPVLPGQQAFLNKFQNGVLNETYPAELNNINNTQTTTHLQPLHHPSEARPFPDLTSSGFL
Assay: hAHR Nuclear Translocation Assay
Type: cell-based
Conditions: AhR-EGFP nuclear translocation in Jump-In T-REx HEK293 cells, 45 minutes incubation, read-out: Rel EC50
Source text: The purpose of this assay is to measure the ability of compounds to bind to, activate, and induce the translocation of AhR into the nucleus of a cell for transcription. Stable cell lines were established using Jump-InTM T-RExTM HEK293 Retargeting Kit (Life Technologies). Human AhR cDNA was cloned into the pJTI R4 CMV-TO EGFP vector. The EGFP was cloned to the C-terminal of AHR to form AhR-EGFP chimera. The pJTI R4 CMV-TO AhR-EGFP vector was transfected using FuGENE® HD into Jump-InTM T-RExTM HEK293 cells. Transfected cells were selected using 2.5 mg/ml G418 for 10 to 14 days, then expanded, harvested, and suspended in freeze media (FBS with 8% DMSO) at 2×10^7 cells/ml, and aliquots were stored in liquid nitrogen. One day before the assay date, cells were thawed and resuspended in DMEM with 5% FBS in the presence of 1 μg/ml Doxycycline and plated into ploy-L-Lysine coated […]-384 ULTRA Microplates (Perkin Elmer) at 12,000 to 15,000 cells per well and incubated at 37° C. and 5% CO2 overnight. On the assay date, compound was serially diluted (1:2) into 384-well nunc plates with DMSO using acoustic dispensing (ECHO®). The dose response was a 20-point curve. […] The culture media was damped and 25 μl of DMEM plus 0.1% BSA was added, then 25 μL of compound in DMEM plus 0.1% BSA was added into cell plates. Cells were incubated compounds at 37° C. and 5% CO2 for 45 minutes. The final DMSO concentration was 0.2%. The media was damped after 45 minutes incubation. The cells were fixed with 40 μl of cold MeOH (-20° C.) for 20 minutes. The MeOH was damped and 50 μL of DPBS containing 1 μg/mL Hochst was added into the cell plates. The intensity of EGFP was quantitated by using Opera PHENIX® or OPERETTA® high content image system (Perkin Elmer) with 20× Water Objective and five field per well. The ratio of EGFP fluorescent intensity in nuclear over cytosol was analyzed using a 4-parameter nonlinear logistic equation to determine the potency of AhR agonists.

Row | EC50 (class symbols) [nM] | EC50 (numeric values) [nM] | SMILES
1 | 10 to 50 |  | CC1CCc2c1cc(C(=O)Nc1ccn(C)n1)c1nncn21 (single isomer, unassigned) [Example 63, 6-Methyl-N-(1-methyl-1H-pyrazol-3-yl)-7,8-dihydro-6H-cyclopenta[e][1,2,4] triazolo[4,3-a]pyridine-4-carboxamide]
2 | 1 to 10 |  | O=C(Nc1ncc(F)cn1)c1cc2c(n3cnnc13)CCC2C1CC1 (single isomer, unassigned) [Example 67, 6-Cyclopropyl-N-(5-fluoropyrimidin-2-yl)-7,8-dihydro-6H-cyclopenta[e][1,2,4] triazolo[4,3-a]pyridine-4-carboxamide]
3 | 10 to 50 |  | CCCC1CCc2c1cc(C(=O)Nc1ncc(F)cn1)c1nncn21 (single isomer, unassigned) [Example 68, N-(5-Fluoropyrimidin-2-yl)-6-propyl-7,8-dihydro-6H-cyclopenta[e][1,2,4] triazolo[4,3-a]pyridine-4-carboxamide]
4 |  | 5.79 | C[C@H]1CCc2c1cc(C(=O)Nc1ncc(F)cn1)c1nncn21 [Example 5, (S)-N-(5-Fluoropyrimidin-2-yl)-6-methyl-7,8-dihydro-6H-cyclopenta[e][1,2,4]triazolo [4,3-a]pyridine-4-carboxamide]
5 |  | 5.74 | C[C@@H]1CCc2c1cc(C(=O)Nc1ncc(F)cn1)c1nncn21 [Example 6, (R)-N-(5-Fluoropyrimidin-2-yl)-6-methyl-7,8-dihydro-6H-cyclopenta[e][1,2,4]triazolo [4,3-a]pyridine-4-carboxamide]

Second part, the compound before the results:

Row | SMILES | EC50 (class symbols) [nM] | EC50 (numeric values) [nM]
6 | O=C(Nc1ncc(F)cn1)c1cc2c(n3cnnc13)CCC2C1CCC1 (single isomer, unassigned) [Example 64, 6-Cyclobutyl-N-(5-fluoropyrimidin-2-yl)-7,8-dihydro-6H-cyclopenta[e][1,2,4] triazolo[4,3-a]pyridine-4-carboxamide] | 1 to 10 | 
7 | O=C(Nc1ncc(F)cn1)c1cc2c(n3cnnc13)CCC2C1CCC1 (single isomer, unassigned) [Example 65, 6-Cyclobutyl-N-(5-fluoropyrimidin-2-yl)-7,8-dihydro-6H-cyclopenta[e][1,2,4] triazolo[4,3-a]pyridine-4-carboxamide] | 1 to 10 | 
8 | O=C(Nc1ncc(F)cn1)c1cc2c(n3cnnc13)CCC2C1CC1 (single isomer, unassigned) [Example 66, 6-Cyclopropyl-N-(5-fluoropyrimidin-2-yl)-7,8-dihydro-6H-cyclopenta[e][1,2,4] triazolo[4,3-a]pyridine-4-carboxamide] | 1 to 10 | 
9 | O=C(Nc1ncc(F)cn1)c1cc2ccccc2n2cnnc12 [Example 1, N-(5-Fluoropyrimidin-2-yl)-[1,2,4]triazolo[4,3-a]quinoline-4-carboxamide] |  | 3.1
10 | O=C(Nc1ncc(F)cn1)c1cc2ccccc2n2ccnc12 [Example 2, N-(5-Fluoropyrimidin-2-yl)imidazo[1,2-a]quinoline-4-carboxamide] |  | 0.585
